Consider three compounds from patent publication US9200333B2, “Methods for identifying modulators of murine double minute 2” (Indiana University Research and Technology Corporation, priority 2012, dated 2015).

Type in all cases: cell-based, human
For test [1], the system named is neddylating activity of Mdm2 (neddylated p53) in H1299 cells. Kind of test: Western blot of neddylated p53 in H1299 cells transfected with p53, Mdm2 and CA-Src. The following applies: vs DMSO, FIG. 29. The protocol:
(§1) Mammalian cells (H1299 and MCF7) were cultured at 37° C. in a humidified incubator with 5% CO2 in DMEM high glucose plus 10% FBS. Transfection in H1299 was performed using a calcium phosphate method and in MCF7 using Lipofectamine Plus reagent (Invitrogen). Equal amounts of DNA were transfected into cells and incubated for the indicated times prior to analysis. PPI (Calbiochem) and MLN4924 (LifeSensors) were used at concentrations provided. Site-directed mutagenesis was performed by PCR, and constructs were sequenced in their entirety.
H1299 cells were transfected with His-Ubiquitin or His-Nedd8 and other plasmids as indicated using calcium phosphate method. 48 hours after transfection, cells were lysed in 1 ml of 6M guanidinium-HCl, 0.1M Na2HPO4/NaH2PO4, 0.01M Tris-HCl pH 8.0 plus 5 mM Imidazole and 10 mM β-mercaptoethanol. After sonication, the lysates were mixed with 30 μl of Ni^2+-NTA-agarose beads (Qiagen) prewashed with lysis buffer and incubated for 2 hours at room temperature. The beads were successively washed and eluted.
Based on transient transfection data that supported its role as a neddylating enzyme, the affect of pharmacological inhibition of neddylating activity of Mdm2 using MLN4924 was determined.
(In general: In western blotting, separated proteins are transferred to a membrane and probed.)

Test [2] deals with p53 activity (PG13-Luc) in H1299 cells. Put plainly: PG13-Luc luciferase assay in H1299 cells transfected with p53, Mdm2 and CA-Src. The following applies: H1299 cells transfected with PG-13-luc, FIG. 32. The protocol: (§2) For the luciferase assays, H1299 and MCF7 cells were transfected with PG13-Luc, Mdm2-P2-Luc, Maspin-Luc or Mutant Maspin-Luc (MT1) along with Myc-LacZ for determination of […] activity, using the calcium phosphate method. Reporter activity was normalized to […] activity. Data generated were done in triplicate and standard deviation was calculated from the mean.
H1299 cells were transfected with the PG-13-luc, p53, Mdm2 and CA-Src. Reduction in p53 activity by Mdm2 was further increased in the presence of c-Src.

Test [3] concerns endogenous Mdm2 tyrosine phosphorylation in MCF7 cells. Kind of test: Immunoprecipitation of Mdm2 from MCF7 extracts and immunoblot for phosphorylated tyrosine. The following applies: MCF7 cells pretreated 16 hrs; FIG. 8. The protocol: as §1
Whole cell lysates (Lysates) were prepared in Nonidet P-40 lysis buffer (25 mM Tris, pH 8.0, 150 mM NaCl, 0.5 mM EDTA, 0.5 mM EGTA, 1% Nonidet P-40, 1 mM sodium orthovanadate, 1 mM DTT) and supplemented with protease inhibitor mixture set III (Calbiochem) at 1:100 and incubated on ice for 30 min. Debris was collected by centrifugation, and equal amounts of supernatant protein were determined by BioRad assay. Protein was fractionated by SDS-PAGE and transferred to PVDF membrane (Amersham Biosciences). […]
First, H1299 cells were transfected with HA-tagged Mdm2 (HA-Mdm2) with either constitutively active c-Src (CA-Src) or a kinase dead Src (KD-Src). […] Along with overexpression, whether c-Src could phosphorylate endogenous Mdm2 was determined. […]

Test [4] has as its system Mdm2 protein levels in MCF7 cells. Kind of test: Western blot of endogenous Mdm2 protein levels in MCF7 cells. The protocol:
as §1
(§3) Whole cell lysates (Lysates) were prepared in Nonidet P-40 lysis buffer (25 mM Tris, pH 8.0, 150 mM NaCl, 0.5 mM EDTA, 0.5 mM EGTA, 1% Nonidet P-40, 1 mM sodium orthovanadate, 1 mM DTT) and supplemented with protease inhibitor mixture set III (Calbiochem) at 1:100 and incubated on ice for 30 min. Debris was collected by centrifugation, and equal amounts of supernatant protein were determined by BioRad assay. Protein was fractionated by SDS-PAGE and transferred to PVDF membrane (Amersham Biosciences). Antibodies used for Western blotting were: Mdm2 (SMP14, 2Al0, and 4Bl1), c-Src (B-12; Santa Cruz), p53 (DO-1), tubulin (TU-02), GAPDH (8C2), and β-actin (C4; Santa Cruz Biotechnology); phosphotyrosine (4010; Upstate); phospho-c-Src Tyr^416 (Cell Signaling); Myc (9E10) and HA (12CA5) Immunoprecipitation from lysates was performed using 500 ng of either SMP14 for Mdm2, HA (12CA5), p53 (D01) or c-Src (B-12) antibody overnight at 4° C. in 700 μl of PBS. Protein A/G Plus Agarose (Santa Cruz Biotechnology) was added to the mixture and incubated an additional 2 hrs at 4° C., precipitates were washed three times in PBS, and samples were resuspended in SDS loading buffer and boiled for 5 min.
To examine how c-Src regulates endogenous Mdm2 protein levels, c-Src was activated through epidermal growth factor (EGF) stimulation of MCF7 cells. MCF7 cells were serum-starved for 48 hrs and then treated with 200 ng/mL of EGF for a time course of 2 hrs. […]

Test [5] has as its system mdm2 P2 promoter. Kind of test: mdm2-P2-Luc luciferase reporter assay in MCF7 cells. Conditions: vs DMSO, FIG. 16. The protocol:
as §2
To determine whether c-Src altered mdm2 gene expression, a luciferase reporter assay was conducted in which the mdm2 P2 promoter was attached to luciferase.
(In general: A reporter such as luciferase makes a cellular process visible.)

Test [6] relates to p53 levels in MCF7 cells. Kind of test: Western blot of endogenous p53 levels in MCF7 cells. The protocol: as §3
To examine endogenous p53 levels, MCF 7 cells were transfected with increasing amounts of CA-Src. […]

The test system of test [7] is endogenous neddylated p53 in MCF7 cells. Put plainly: Immunoprecipitation of p53 from MCF7 cells and anti-Nedd8 immunoblot. Conditions: vs DMSO, FIG. 30. The protocol:
as §3
To determine the role of c-Src on endogenous neddylation of p53, the c-Src inhibitor PP1 was used to treat MCF7 cells. MCF7 cells were treated with PP1, and p53 was immunoprecipitated from cell extracts. […]

The test system of test [8] is p53 activity on the maspin promoter in MCF7 cells. Put plainly: Maspin-Luc luciferase assay in MCF7 cells. The following applies: 16 hrs, FIG. 35. The protocol:
as §2
To ensure that the decrease seen on the maspin promoter was due to c-Src phosphorylation of Mdm2, another luciferase assay was done using the Y281-302F Mdm2 and CA-Src. […] For further insight on how endogenous neddylation of p53 would affect maspin level, MCF7 cells were transfected with the maspin-Luc construct or a mutant maspin-Luc (MT1) that is unresponsive to p53, to ensure luciferase activity was dependent on p53. c-Src was then inhibited for 16 hrs using PP1 and a luciferase assay was performed. […] These findings provide insight into the regulation of c-Src-induced neddylation of p53. This neddylation event is responsible for the further reduction in p53 activity on both the PG13-Luc and on its ability to activate the tumor suppressor maspin (FIG. 37).

Test [9] has as its system maspin protein in MCF7 cells. Kind of test: Western blot of Maspin in MCF7 cells. The following applies: vs DMSO, FIG. 36. The protocol: as §3
To ensure that the decrease seen on the maspin promoter was due to c-Src phosphorylation of Mdm2, another luciferase assay was done using the Y281-302F Mdm2 and CA-Src. […]

As to `NS(=O)(=O)OC[C@@H]1C[C@@H](n2ccc3c(N[C@H]4CCc5ccccc54)ncnc32)C[C@@H]1O` [MLN4924], the “neddylated p53” value in test [1] is given as “loss of neddylated p53”. For the same compound, the “p53 activity (PG13-Luc)” value in [2] was “restored p53 activity to levels observed with Mdm2 alone”.
As for `Cc1ccc(-c2nn(C(C)(C)C)c3ncnc(N)c23)cc1` [PP1], the “endogenous Mdm2 tyrosine phosphorylation” value in test [3] is reported as “loss of endogenous Mdm2 tyrosine phosphorylation”. For the same compound, the Mdm2 levels entry in test [4] (MCF7 cells, increasing concentrations (1, 5, 10, 15, 20 μM), FIG. 14) is “dose-dependent decrease in Mdm2 levels”. In test [4] (serum starved MCF7 cells pre-treated 1 hr before addition of EGF, FIG. 13), the “Mdm2 protein level after EGF” value is reported as “no apparent increase in Mdm2”. Further, in [5], the “mdm2 promoter luciferase activity” value is “No difference”. The p53 levels entry in [6] (MCF7 cells, increasing concentrations (1, 5, 10, 15, 20 μM), FIG. 24) is recorded as “dose dependent decrease in p53 levels”. For the same compound, the “endogenous neddylated p53” value in test [7] is listed as “decrease in endogenous neddylated p53”. Moreover, the “p53 activity on maspin-Luc construct” value in [8] was “increase of p53 activity on the maspin-Luc construct”. The maspin protein level entry in test [9] is “maspin protein was increased”.
Turning to “EGF: epidermal growth factor used to activate c-Src in MCF7 cells”, the “Mdm2 protein levels on EGF stimulation” value in test [4] (MCF7 cells serum-starved 48 hrs, 200 ng/mL, time course of 2 hrs, FIG. 12) was “increase of Mdm2 protein levels”. For the same compound, the “p53 levels on EGF stimulation” value in test [6] (MCF7 cells serum starved 48 hours, 1-hour time course, FIG. 23) is recorded as “increase in p53”.
